Our source for the IC50, melting point and insulin secretion amount values is patent US20080021069A1, “Receptor Function Regulating Agent” (TAKEDA PHARMACEUTICAL COMPANY LIMITED, priority 2004, published 2008).

The target of series [1] is T1, human GPR40 (Homo sapiens, UniProt O14842).
T1 construct: expressed in transfected cells; host or cells: CHO(dhfr-) cells: line CHO-hGPR40 No. 104 of WO2004/041266, with a stably expressed NFAT-TA-Luc reporter (CHO(dhfr-)/GPR40-NFAT-Luc)
Put plainly: GPR40 antagonist activity with changes in intracellular calcium concentration as index (NFAT-luciferase reporter, CHO(dhfr-)/GPR40-NFAT-Luc cells). The class given is cell-based. As to conditions: CHO cell line expressing human GPR40, NFAT-Luc reporter; GPR40 agonist 3-(4-((6-benzyloxy-2',6'-dimethyl-biphenyl-3-yl)methoxy)phenyl)propanoic acid 40 nM; 4 hr culture; 0.1% fatty acid-free BSA. The source says:
Evaluation of GPR40 antagonist activity with changes in intracellular calcium concentration as index
An assay system of GPR40 antagonist was established as follows. In this assay system, as the GPR40 agonist, 3-(4-((6-benzyloxy-2′,6′-dimethyl-biphenyl-3-yl)methoxy)phenyl)propanoic acid (compound described in Example 340 of WO2004/041266) was used.
First, NFAT-TA was cut out from pNFAT-TA-Luc (manufactured by BD Bioscience Clontech) with HindIII and NheI, the recovered fragment was inserted into pGL3 basic neo digested with HindIII and NheI to give plasmid:pGL3 basic neo NFAT-TA-Luc.
This plasmid was used for “the CHO cell line (CHO-hGPR40 No. 104), which was made to express human GPR40” described in WO2004/041266, and a cell line CHO(dhfr-)/GPR40-NFAT-Luc, wherein a reporter gene was stably expressed by a method known per se, was prepared.
This cell line was diluted with a medium (nucleic acid-free MEM (Minimum Essential Medium)—α medium added with dialyzed FBS (Fetal Bovine Serum) to a final concentration of 10%) in such a manner that 2×10^4 cells/100 μl would be contained, dispensed to a white walled 96 well plate (manufactured by Coster) by 100 μl per well, and cultured overnight in a CO2 incubator. Then the medium was removed by suction from the 96 well plate, and a 10 mM test compound-dimethyl sulfoxide (manufactured by Wako Pure Chemical Industries, Ltd.) solution diluted with a medium (nucleic acid-free MEM—α medium added with bovine serum albumin (BSA) free of fatty acid to a final concentration of 0.1%) to each concentration was added by 50 μl per well. Further, 3-(4-((6-benzyloxy-2′,6′-dimethyl-biphenyl-3-yl)methoxy)phenyl)propanoic acid diluted with a medium (nucleic acid-free MEM-α (medium added with BSA free of fatty acid to a final concentration of 0.1%) to a final concentration of 40 nM was added to the 96 well plate by 50 μl per well.
After culture in a CO2 incubator for 4 hr, the culture medium was removed from the 96 well plate. Then, PicaGene (manufactured by TOYO INK MFG. CO., LTD.) was added to the 96 well plate, and the luciferase activity was determined using PerkinElmer ARVO (trade name, manufactured by PerkinElmer), based on which changes in the intracellular calcium concentration were evaluated. After assay of luciferase activity, nonlinear regression analysis was performed using PRISM 3 (trade name, manufactured by GraphPad) and IC50 value was calculated with changes in the intracellular calcium concentration as an index.
In the same manner as in Experimental Example 1, the IC50 value of the compound of the present invention was calculated.

Series [2] relates to rat pancreatic islet. The series can be described thus: Insulin secretion suppressive activity using rat pancreatic islet (palmitic acid stimulation). The class given is cell-based. The following applies: glucose 16 mM, compound 10 μM, 30 min, mean ± SD (n = 4). The protocol: The effect of the compound of the present invention on the insulin secretion from the rat pancreatic islet, which is induced by palmitic acid stimulation, was evaluated.
Male SD rats (7-week-old, Clea Japan, Inc.) were anesthetized with Nembutal (50 mg/kg, i.p.) and subjected to laparotomy. While confirming and following the course of the common bile duct to the peripheral thereof, and the duct was ligated at the liver side immediately from the opening of the duodenum. Then, the common bile duct was detached from the surrounding tissue on the duodenum side from the hepatic duct bifurcation and a thread was placed thereon. An indwelling needle (22G, manufactured by TERUMO CORPORATION) was inserted into the common bile duct at a position on the liver side from this part and fixed by ligation with the thread placed earlier thereon. 10 ml of 150 mg/ml collagenase (manufactured by Wako Pure Chemical Industries, Ltd., for cell dispersion)-Hank's Balanced Salt Solution (HBSS, manufactured by Invitrogen)-1% Bovine Serum Albumin (BSA, manufactured by Wako Pure Chemical Industries, Ltd.) −0.01 mg/ml DnaseI (manufactured by Roche Molecular Biochemicals)-2.5% N-2-Hydroxyethylpiperazine-N′-2-Ethane Sulfonic Acid (HEPES, manufactured by Invitrogen) was injected from the common bile duct. […]

T1 sequence (O14842 whole entry): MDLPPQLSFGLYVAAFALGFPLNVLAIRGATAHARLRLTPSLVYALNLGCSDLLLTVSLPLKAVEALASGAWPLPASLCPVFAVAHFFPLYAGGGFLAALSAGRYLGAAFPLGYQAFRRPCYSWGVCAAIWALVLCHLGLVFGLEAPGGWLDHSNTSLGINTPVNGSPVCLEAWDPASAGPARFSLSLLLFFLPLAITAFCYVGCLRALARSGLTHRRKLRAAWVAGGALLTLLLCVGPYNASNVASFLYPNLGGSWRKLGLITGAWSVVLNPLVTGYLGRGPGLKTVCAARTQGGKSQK

For orientation: IC50 means the concentration at which inhibition is half-maximal. Usually melting point stands for the temperature, or range, at which the solid turns liquid. On to `CCOc1ccc(-n2c(SCc3ccc(Cl)cc3)nc3ccc(Cl)cc32)cc1` [Example 10, 6-chloro-2-[(4-chlorobenzyl)thio]-1-(4-ethoxyphenyl)-1H-benzimidazole], for which the melting point fell in the range of 129 to 130 °C. Moreover, the IC50 in series [1] is below 0.1 µM. The same compound registered an insulin secretion amount in series [2] (palmitic acid 0 mM) of 353 ± 122 pg/ng DNA. In series [2] (palmitic acid 1 mM), this compound yielded an insulin secretion amount of 369 ± 141 pg/ng DNA.
`CCOc1ccc(-n2c(SCc3ccc(Cl)cc3)nc3cc(Cl)c(Cl)cc32)cc1` [Example 111, 5,6-Dichloro-2-[(4-chlorobenzyl)thio]-1-(4-ethoxyphenyl)-1H-benzimidazole] displayed a melting point of 131 to 132 °C. The IC50 in series [1] was below 0.1 µM.
For `CCCOc1ccc(-n2c(SCc3ccc(Cl)cc3)nc3cc(Cl)c(Cl)cc32)cc1` [Example 112, 5,6-Dichloro-2-[(4-chlorobenzyl)thio]-1-(4-propoxyphenyl)-1H-benzimidazole], in that order: 119 to 120 °C and below 0.1 µM.
Take `CCCCOc1ccc(-n2c(SCc3ccc(Cl)cc3)nc3cc(Cl)c(Cl)cc32)cc1` [Example 113, 1-(4-Butoxyphenyl)-5,6-dichloro-2-[(4-chlorobenzyl)thio]-1H-benzimidazole]: the melting point is 99 to 100 °C. For the same compound, in series [1], the IC50 was below 0.1 µM.
`CCCOc1ccc(-n2c(SCc3ccc(Cl)cc3)nc3cc(Cl)ccc32)cc1.Cl` [Example 121, 5-Chloro-2-[(4-chlorobenzyl)thio]-1-(4-propoxyphenyl)-1H-benzimidazole hydrochloride] had a melting point of 104 to 112 °C. Moreover, the IC50 in series [1] was below 0.1 µM.
In turn, `CCCCOc1ccc(-n2c(SCc3ccc(Cl)cc3)nc3cc(Cl)ccc32)cc1.Cl` [Example 122, 1-(4-Butoxyphenyl)-5-chloro-2-[(4-chlorobenzyl)thio]-1H-benzimidazole hydrochloride] showed a melting point of 83 to 89 °C. For the same compound, the IC50 in series [1] is below 0.1 µM.
For the compound `FC(F)(F)COc1ccc(-n2c(SCc3ccc(Cl)cc3)nc3cc(Cl)c(Cl)cc32)cc1` [Example 131, 5,6-Dichloro-2-[(4-chlorobenzyl)thio]-1-[4-(2,2,2-trifluoroethoxy)phenyl]-1H-benzimidazole], the melting point was 90 to 92 °C. For the same compound, the IC50 in series [1] was below 0.1 µM.
`Clc1ccc(CSc2nc3ccc(Cl)cc3n2-c2ccc(C3OCCO3)cc2)cc1` [Example 132, 6-Chloro-2-[(4-chlorobenzyl)thio]-1-[4-(1,3-dioxolan-2-yl)phenyl]-1H-benzimidazole] displayed a melting point of 129 to 130 °C. Further, in series [1], the IC50 was below 0.1 µM.
Turning to `FC(F)C(F)(F)Oc1ccc(-n2c(SCc3ccc(Cl)cc3)nc3ccc(Cl)cc32)cc1` [Example 135, 6-Chloro-2-[(4-chlorobenzyl)thio]-1-[4-(1,1,2,2-tetrafluoroethoxy)phenyl]-1H-benzimidazole], the melting point is 139 to 140 °C. For the same compound, the IC50 in series [1] is below 0.1 µM.
